Laboratory results from patent publication US8555897B2, “Method of making a cigarette and method of reducing cytotoxicity in tobacco smoke” (priority 2005, dated 2013).
Read-outs that look alike come from different tables or passages of the source.

How the values were obtained:
[1] = Gas vapor phase (GVP) toxicity
Description: Additionally, a control filler was sprayed with 20 g of deionized H2O. Next, the sprayed fillers were dried, conditioned and processed into handmade cigarettes.

[2] = TPM cytotoxicity of cigarette smoke
[3] = TPM mutagenicity of cigarette smoke
[4] = Table 1, filler additive 10.8% NH4OAc or 6.3% Co(NH3)6Cl3, vs water-sprayed control
[5] = Table 4, NH4OAc alone: filler treatment scaled up to 300 g/batch

## CC(=O)[O-].CC(=O)[O-].CC(=O)[O-].N.N.N.N.N.N.[Co+3] [Co(NH3)6(OAc)3, hexammine cobalt (III) acetate]
[1]; Table 5, Co 1.3%, NH3 2.4%, glycerin 10% where present, vs water-sprayed control
  GVP Toxicity, change: −42%
[2]
  Cytotoxicity, change (TPM): −24%
  TPM and GVP toxicity of cigarette smoke (in words): significant reduction

## N.N.N.N.N.N.[Cl-].[Cl-].[Cl-].[Co+3] [Co(NH3)6Cl3, hexammine cobalt (III) chloride]
[2]
  Cytotoxicity, change (MS TPM): −34%

## CC(=O)O.N [NH4OAc, ammonium acetate]
[1]; Table 3
  reduction in GVP toxicity: 29%
[1]; Table 3, change from control
  GVP Toxicity, change: −29%
[3]; [4]
  Mutagenicity, change (MS TPM): −11%
[3]; [5]
  Mutagenicity, change (TPM): 9%
[2]; [4]
  Cytotoxicity, change (MS TPM): −33%
[2]; [5]
  Cytotoxicity, change (TPM): −26%
